Assay in all cases: FLIPR calcium assay, cells with promiscuous G protein transfected with bitter receptor cDNA
What all share (type): cell-based
Common to all, as to details: responsive if cellular response of >10% over baseline, Fluo4-AM

For test [1], the target named is T1, T2R receptor SEQ ID NO: 1 (S1) (Homo sapiens, UniProt Q9NYW7).
T1 construct: expressed in transfected cells; host or cells: cells expressing a promiscuous G protein (e.g., G16g44)
T1 sequence (Q9NYW7 1-299): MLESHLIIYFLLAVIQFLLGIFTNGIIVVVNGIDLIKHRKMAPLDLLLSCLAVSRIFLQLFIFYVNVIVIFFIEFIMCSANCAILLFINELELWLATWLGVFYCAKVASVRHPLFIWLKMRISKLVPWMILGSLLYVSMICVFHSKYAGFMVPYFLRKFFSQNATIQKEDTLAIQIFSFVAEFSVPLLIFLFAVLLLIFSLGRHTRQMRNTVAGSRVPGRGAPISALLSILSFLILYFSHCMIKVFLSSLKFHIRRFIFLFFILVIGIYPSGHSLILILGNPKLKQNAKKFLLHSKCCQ
The method, boiled down:
(§1)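 Cells carrying promiscuous G protein G16g44 were transfected with a single bitter receptor cDNA each, cultured 28 hours, then loaded with Fluo4-AM for 60 minutes. After washing, agonist addition and intracellular fluorescence were recorded together by FLIPR. A receptor counted as responsive at >10% over baseline.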

Test [2] deals with T2, T2R receptor SEQ ID NO: 2 (S2) (Homo sapiens, UniProt Q9NYW2).
T2 construct: expressed in transfected cells; host or cells: cells expressing a promiscuous G protein (e.g., G16g44)
T2 sequence (Q9NYW2 1-309): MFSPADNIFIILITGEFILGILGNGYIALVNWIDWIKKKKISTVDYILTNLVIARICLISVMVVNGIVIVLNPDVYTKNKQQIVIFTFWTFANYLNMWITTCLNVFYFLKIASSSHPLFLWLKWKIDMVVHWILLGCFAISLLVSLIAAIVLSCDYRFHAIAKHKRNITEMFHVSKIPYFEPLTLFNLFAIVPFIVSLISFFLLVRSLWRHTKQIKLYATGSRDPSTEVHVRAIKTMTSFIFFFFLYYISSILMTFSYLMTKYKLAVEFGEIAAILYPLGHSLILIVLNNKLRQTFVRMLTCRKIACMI
The method, boiled down:
as §1

Test [3] concerns the target T3, T2R receptor SEQ ID NO: 3 (S3) (Homo sapiens, UniProt Q9NYW0, T156M).
T3 construct: expressed in transfected cells; host or cells: cells expressing a promiscuous G protein (e.g., G16g44)
T3 sequence (Q9NYW0 1-307 T156M): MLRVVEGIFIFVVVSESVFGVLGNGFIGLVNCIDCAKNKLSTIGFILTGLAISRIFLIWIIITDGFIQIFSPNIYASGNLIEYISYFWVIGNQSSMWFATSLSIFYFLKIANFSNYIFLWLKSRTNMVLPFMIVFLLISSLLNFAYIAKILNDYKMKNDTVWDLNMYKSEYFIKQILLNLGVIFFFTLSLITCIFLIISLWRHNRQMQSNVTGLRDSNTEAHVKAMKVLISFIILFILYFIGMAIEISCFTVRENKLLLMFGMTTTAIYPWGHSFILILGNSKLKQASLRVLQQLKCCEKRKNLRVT
The method, boiled down: as §1

Test [4] has as its target T4, T2R receptor SEQ ID NO: 4 (S4) (Homo sapiens, UniProt Q9NYV8).
T4 construct: expressed in transfected cells; host or cells: cells expressing a promiscuous G protein (e.g., G16g44)
T4 sequence (Q9NYV8 1-317): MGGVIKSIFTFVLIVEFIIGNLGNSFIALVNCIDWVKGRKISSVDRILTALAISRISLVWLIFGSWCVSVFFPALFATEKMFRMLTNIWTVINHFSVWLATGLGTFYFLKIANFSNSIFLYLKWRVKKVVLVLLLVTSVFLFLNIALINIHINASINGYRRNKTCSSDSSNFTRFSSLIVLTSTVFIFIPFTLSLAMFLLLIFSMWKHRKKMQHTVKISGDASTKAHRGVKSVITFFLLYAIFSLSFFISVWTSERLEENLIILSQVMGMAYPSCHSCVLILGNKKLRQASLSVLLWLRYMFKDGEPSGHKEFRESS
In outline: as §1

In test [5] the target is T5, T2R receptor SEQ ID NO: 5 (S5) (Homo sapiens, UniProt P59534).
T5 construct: expressed in transfected cells; host or cells: cells expressing a promiscuous G protein (e.g., G16g44)
T5 sequence (P59534 18-338): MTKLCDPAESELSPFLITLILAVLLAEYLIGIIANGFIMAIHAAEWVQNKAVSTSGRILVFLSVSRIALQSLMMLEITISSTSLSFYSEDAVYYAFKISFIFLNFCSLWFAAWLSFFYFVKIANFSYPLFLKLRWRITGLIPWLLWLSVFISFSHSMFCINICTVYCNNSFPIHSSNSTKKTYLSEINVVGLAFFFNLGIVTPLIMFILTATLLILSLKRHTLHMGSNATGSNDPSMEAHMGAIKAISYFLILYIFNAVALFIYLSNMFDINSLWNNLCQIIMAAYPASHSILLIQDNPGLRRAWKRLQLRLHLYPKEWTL
In outline:
as §1

Test [6] has as its target T6, T2R receptor SEQ ID NO: 6 (S6) (Homo sapiens, UniProt P59540).
T6 construct: expressed in transfected cells; host or cells: cells expressing a promiscuous G protein (e.g., G16g44)
T6 sequence (P59540 1-309): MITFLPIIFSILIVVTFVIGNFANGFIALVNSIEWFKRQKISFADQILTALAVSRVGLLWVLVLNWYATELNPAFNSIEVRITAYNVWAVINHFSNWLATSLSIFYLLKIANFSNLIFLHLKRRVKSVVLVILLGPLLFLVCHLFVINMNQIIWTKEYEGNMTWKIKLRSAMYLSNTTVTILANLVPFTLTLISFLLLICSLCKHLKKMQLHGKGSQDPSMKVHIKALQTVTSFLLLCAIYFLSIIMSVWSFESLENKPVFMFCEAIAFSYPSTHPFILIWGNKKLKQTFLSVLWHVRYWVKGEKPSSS
In outline: as §1

SMILES strings stand for the structures.

Take `COc1ccccc1OCC(O)CO` (stereo not shown) [Guaifenesin]: in test [1], the “S1 positive response of T2R receptor to API” value (shortened to “S1 positive response”) is on record as “+ (a “+” to indicate whether a particular T2R receptor showed a positive response to a particular API)”. Besides, the “S2 positive response of T2R receptor to API” value (“S2 positive response” below) in test [2] is listed as “+ (a “+” to indicate whether a particular T2R receptor showed a positive response to a particular API)”. The “S3 positive response of T2R receptor to API” value (from here on “S3 positive response”) in test [3] is listed as “+ (a “+” to indicate whether a particular T2R receptor showed a positive response to a particular API)”. For the same compound, the “S4 positive response of T2R receptor to API” value (shortened to “S4 positive response”) in test [4] is recorded as “+ (a “+” to indicate whether a particular T2R receptor showed a positive response to a particular API)”. In addition, in test [5], the “S5 positive response of T2R receptor to API” value (“S5 positive response” below) is recorded as “+ (a “+” to indicate whether a particular T2R receptor showed a positive response to a particular API)”.

On to `CCC[C@@H]1C[C@@H](C(=O)N[C@@H]([C@H]2O[C@H](SC)[C@H](O)[C@@H](O)[C@H]2O)[C@H](C)Cl)N(C)C1` [Clinamycin], for which, in test [2], the “S2 positive response” value is given as “+ (a “+” to indicate whether a particular T2R receptor showed a positive response to a particular API)”. For the same compound, the “S3 positive response” value in test [3] is recorded as “+ (a “+” to indicate whether a particular T2R receptor showed a positive response to a particular API)”. In addition, the “S4 positive response” value in test [4] is given as “+ (a “+” to indicate whether a particular T2R receptor showed a positive response to a particular API)”. Further, the “S5 positive response” value in test [5] is “+ (a “+” to indicate whether a particular T2R receptor showed a positive response to a particular API)”.

Consider `CC[N+](C)(CC)CCOC(=O)C(O)(c1ccccc1)C1CCCCC1` (stereo not shown) [Oxyphenonium], for which the “S1 positive response” value in test [1] was “+ (a “+” to indicate whether a particular T2R receptor showed a positive response to a particular API)”. The “S2 positive response” value in test [2] was “+ (a “+” to indicate whether a particular T2R receptor showed a positive response to a particular API)”. For the same compound, the “S3 positive response” value in test [3] is “+ (a “+” to indicate whether a particular T2R receptor showed a positive response to a particular API)”. Besides, the “S5 positive response” value in test [5] was “+ (a “+” to indicate whether a particular T2R receptor showed a positive response to a particular API)”. In addition, the “S6 positive response of T2R receptor to API” value (from here on “S6 positive response”) in test [6] is “+ (a “+” to indicate whether a particular T2R receptor showed a positive response to a particular API)”.

As to `CCOC(=O)[C@H](CCc1ccccc1)N[C@@H](C)C(=O)N1CCC[C@H]1C(=O)O` [Enalapril], in test [1], the “S1 positive response” value is given as “+ (a “+” to indicate whether a particular T2R receptor showed a positive response to a particular API)”. Moreover, in test [2], the “S2 positive response” value was “+ (a “+” to indicate whether a particular T2R receptor showed a positive response to a particular API)”. Besides, in test [4], the “S4 positive response” value is given as “+ (a “+” to indicate whether a particular T2R receptor showed a positive response to a particular API)”. In addition, the “S5 positive response” value in test [5] was “+ (a “+” to indicate whether a particular T2R receptor showed a positive response to a particular API)”. Moreover, the “S6 positive response” value in test [6] is listed as “+ (a “+” to indicate whether a particular T2R receptor showed a positive response to a particular API)”.

As for `O=C(N[C@H](CO)[C@H](O)c1ccc([N+](=O)[O-])cc1)C(Cl)Cl` [Chloramphenicol], the “S1 positive response” value in test [1] is given as “+ (a “+” to indicate whether a particular T2R receptor showed a positive response to a particular API)”. In addition, in test [2], the “S2 positive response” value was “+ (a “+” to indicate whether a particular T2R receptor showed a positive response to a particular API)”. Besides, the “S3 positive response” value in test [3] was “+ (a “+” to indicate whether a particular T2R receptor showed a positive response to a particular API)”. In addition, in test [5], the “S5 positive response” value is recorded as “+ (a “+” to indicate whether a particular T2R receptor showed a positive response to a particular API)”. Besides, the “S6 positive response” value in test [6] was “+ (a “+” to indicate whether a particular T2R receptor showed a positive response to a particular API)”.

Consider `CC[C@H]1OC(=O)[C@H](C)[C@@H](O[C@H]2C[C@@](C)(OC)[C@@H](O)[C@H](C)O2)[C@H](C)[C@@H](O[C@@H]2O[C@H](C)C[C@H](N(C)C)[C@H]2O)[C@](C)(O)C[C@@H](C)C(=O)[C@H](C)[C@@H](O)[C@]1(C)O` [Erythromycin], for which, in test [2], the “S2 positive response” value is “+ (a “+” to indicate whether a particular T2R receptor showed a positive response to a particular API)”. Moreover, in test [3], the “S3 positive response” value was “+ (a “+” to indicate whether a particular T2R receptor showed a positive response to a particular API)”. Further, in test [5], the “S5 positive response” value is on record as “+ (a “+” to indicate whether a particular T2R receptor showed a positive response to a particular API)”. Also, in test [6], the “S6 positive response” value was “+ (a “+” to indicate whether a particular T2R receptor showed a positive response to a particular API)”.

`COc1cc(Cc2cnc(N)nc2N)cc(OC)c1OC` [Trimethoprim]: in test [2], the “S2 positive response” value is recorded as “+ (a “+” to indicate whether a particular T2R receptor showed a positive response to a particular API)”. Further, the “S3 positive response” value in test [3] is listed as “+ (a “+” to indicate whether a particular T2R receptor showed a positive response to a particular API)”. Besides, the “S5 positive response” value in test [5] is reported as “+ (a “+” to indicate whether a particular T2R receptor showed a positive response to a particular API)”. For the same compound, the “S6 positive response” value in test [6] is given as “+ (a “+” to indicate whether a particular T2R receptor showed a positive response to a particular API)”.

Regarding `NC(N)=Nc1nc(CSCCC(N)=NS(N)(=O)=O)cs1` [Famotidine], the “S1 positive response” value in test [1] is listed as “+ (a “+” to indicate whether a particular T2R receptor showed a positive response to a particular API)”. In addition, the “S2 positive response” value in test [2] is recorded as “+ (a “+” to indicate whether a particular T2R receptor showed a positive response to a particular API)”. Further, the “S3 positive response” value in test [3] is listed as “+ (a “+” to indicate whether a particular T2R receptor showed a positive response to a particular API)”. For the same compound, the “S5 positive response” value in test [5] is listed as “+ (a “+” to indicate whether a particular T2R receptor showed a positive response to a particular API)”. Besides, the “S6 positive response” value in test [6] was “+ (a “+” to indicate whether a particular T2R receptor showed a positive response to a particular API)”.

(Values after patent US20250271426A1, “REDUCTION OF BITTER TASTE OF ACTIVE PHARMACEUTICAL INGREDIENTS AND RELATED ASSAYS AND SCREENING METHODS” (Firmenich Incorporated, priority 2022, published 2025).)
